Legend:
Type in all cases: biochemical
GkTilS = target: T1, GkTilS (Geobacillus kaustophilus, UniProt Q5L3T3); test: 3H-lysine incorporation into tRNA, filter scintillation; conditions: labelled compound; cognate tRNA(Ile2) transcript, 2 mM ATP, 10 mM MgCl2, 10 mM KCl, pH 9.0
T1 construct: gene tilS; recombinant, pET-28a, Rosetta II E. coli; strain source only in supplement (codon-usage genome HTA426)
T1 sequence (Q5L3T3 1-464): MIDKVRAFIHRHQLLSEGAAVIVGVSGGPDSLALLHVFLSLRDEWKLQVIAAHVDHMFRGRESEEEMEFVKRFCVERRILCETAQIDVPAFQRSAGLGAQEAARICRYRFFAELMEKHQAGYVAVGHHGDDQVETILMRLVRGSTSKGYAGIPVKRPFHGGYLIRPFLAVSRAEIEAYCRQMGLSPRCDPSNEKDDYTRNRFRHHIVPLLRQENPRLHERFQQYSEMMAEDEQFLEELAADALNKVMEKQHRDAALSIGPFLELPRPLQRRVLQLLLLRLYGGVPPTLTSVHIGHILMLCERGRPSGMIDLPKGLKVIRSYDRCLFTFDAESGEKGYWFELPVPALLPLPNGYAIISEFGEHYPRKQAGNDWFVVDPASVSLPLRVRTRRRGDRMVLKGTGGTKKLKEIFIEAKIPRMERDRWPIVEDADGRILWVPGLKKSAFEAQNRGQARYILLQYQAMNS

BcTilS = target: T2, BcTilS (Burkholderia cenocepacia, UniProt B4ED70); test: as above; conditions: labelled compound; cognate tRNA(Ile2) transcript, 2 mM ATP, 10 mM MgCl2, 10 mM KCl, pH 9.0
T2 construct: gene tilS; recombinant, pET-28a, Rosetta II E. coli; strain source only in supplement (codon-usage genome HI2424)
T2 sequence (B4ED70 1-473): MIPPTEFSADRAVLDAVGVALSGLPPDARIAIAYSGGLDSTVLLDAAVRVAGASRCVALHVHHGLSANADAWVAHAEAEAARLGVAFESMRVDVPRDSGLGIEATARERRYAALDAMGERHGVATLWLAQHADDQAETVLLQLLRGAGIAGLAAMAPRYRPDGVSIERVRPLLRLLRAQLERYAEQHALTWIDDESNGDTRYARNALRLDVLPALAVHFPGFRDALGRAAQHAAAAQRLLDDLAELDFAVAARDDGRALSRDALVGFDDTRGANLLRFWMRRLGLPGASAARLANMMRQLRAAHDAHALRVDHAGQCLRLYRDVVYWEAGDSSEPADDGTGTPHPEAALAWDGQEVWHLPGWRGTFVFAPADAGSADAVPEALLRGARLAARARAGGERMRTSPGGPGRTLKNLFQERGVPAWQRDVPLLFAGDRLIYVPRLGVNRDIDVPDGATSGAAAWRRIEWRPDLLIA

HpTilS = target: T3, HpTilS (Helicobacter pylori, UniProt O25428); test: as above; conditions: labelled compound; cognate tRNA(Ile2) transcript, 2 mM ATP, 10 mM MgCl2, 10 mM KCl, pH 8.5
T3 construct: gene tilS; type II TilS; recombinant, Rosetta II E. coli; strain source only in supplement (codon-usage genome 26695)
T3 sequence (O25428 1-336): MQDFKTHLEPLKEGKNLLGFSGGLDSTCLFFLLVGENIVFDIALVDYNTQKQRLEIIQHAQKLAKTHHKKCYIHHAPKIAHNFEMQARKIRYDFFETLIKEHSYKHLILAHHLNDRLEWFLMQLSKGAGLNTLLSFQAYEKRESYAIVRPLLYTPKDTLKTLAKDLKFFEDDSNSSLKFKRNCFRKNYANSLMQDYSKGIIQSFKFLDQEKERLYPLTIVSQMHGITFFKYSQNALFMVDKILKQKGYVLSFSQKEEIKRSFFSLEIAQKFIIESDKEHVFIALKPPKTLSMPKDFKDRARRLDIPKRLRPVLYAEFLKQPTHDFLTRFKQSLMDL

BfTilS = target: T4, BfTilS (Bacteroides fragilis, UniProt Q5LFM6); test: as above; conditions: labelled compound; cognate tRNA(Ile2) transcript, 2 mM ATP, 10 mM MgCl2, 10 mM KCl, pH 8.5
T4 construct: gene tilS; recombinant, pET-28a, Rosetta II E. coli; strain source only in supplement (codon-usage genome NCTC9343)
T4 sequence (Q5LFM6 1-435): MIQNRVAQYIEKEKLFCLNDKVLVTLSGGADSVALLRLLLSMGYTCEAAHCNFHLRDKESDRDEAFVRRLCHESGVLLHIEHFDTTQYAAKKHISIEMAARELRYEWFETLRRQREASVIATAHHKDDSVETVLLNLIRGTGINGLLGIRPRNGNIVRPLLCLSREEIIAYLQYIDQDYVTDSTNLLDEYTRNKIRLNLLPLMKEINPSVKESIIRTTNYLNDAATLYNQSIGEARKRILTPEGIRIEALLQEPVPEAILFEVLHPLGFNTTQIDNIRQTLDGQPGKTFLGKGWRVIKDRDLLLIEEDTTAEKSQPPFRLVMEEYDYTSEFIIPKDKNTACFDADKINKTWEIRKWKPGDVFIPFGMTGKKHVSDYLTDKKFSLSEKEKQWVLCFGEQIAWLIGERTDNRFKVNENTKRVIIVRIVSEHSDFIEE

PaTilS = target: T5, PaTilS (Pseudomonas aeruginosa, UniProt Q9HXZ3); test: as above; conditions: labelled compound; cognate tRNA(Ile2) transcript, 2 mM ATP, 10 mM MgCl2, 10 mM KCl, pH 9.0
T5 construct: gene tilS; recombinant, pET-28a, Rosetta II E. coli; strain source only in supplement (codon-usage genome PAO1)
T5 sequence (Q9HXZ3 1-442): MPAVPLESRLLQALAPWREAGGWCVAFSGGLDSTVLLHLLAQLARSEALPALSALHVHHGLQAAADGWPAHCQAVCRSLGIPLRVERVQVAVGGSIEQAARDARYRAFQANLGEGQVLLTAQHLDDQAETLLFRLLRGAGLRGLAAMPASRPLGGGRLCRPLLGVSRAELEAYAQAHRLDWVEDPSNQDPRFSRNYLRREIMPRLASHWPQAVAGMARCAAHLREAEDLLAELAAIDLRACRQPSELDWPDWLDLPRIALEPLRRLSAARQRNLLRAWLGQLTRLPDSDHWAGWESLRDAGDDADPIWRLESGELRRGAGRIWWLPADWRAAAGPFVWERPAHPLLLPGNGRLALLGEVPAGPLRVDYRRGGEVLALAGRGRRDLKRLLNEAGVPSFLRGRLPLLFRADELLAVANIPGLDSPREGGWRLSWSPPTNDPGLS

EcTilS = target: T6, EcTilS (Escherichia coli, UniProt P52097); test: as above; conditions: labelled compound; cognate tRNA(Ile2) transcript, 2 mM ATP, 10 mM MgCl2, 10 mM KCl, pH 9.0
T6 construct: gene tilS; recombinant, pET-28a, Rosetta II E. coli; strain source only in supplement (codon-usage genome W3110)
T6 sequence (P52097 1-432): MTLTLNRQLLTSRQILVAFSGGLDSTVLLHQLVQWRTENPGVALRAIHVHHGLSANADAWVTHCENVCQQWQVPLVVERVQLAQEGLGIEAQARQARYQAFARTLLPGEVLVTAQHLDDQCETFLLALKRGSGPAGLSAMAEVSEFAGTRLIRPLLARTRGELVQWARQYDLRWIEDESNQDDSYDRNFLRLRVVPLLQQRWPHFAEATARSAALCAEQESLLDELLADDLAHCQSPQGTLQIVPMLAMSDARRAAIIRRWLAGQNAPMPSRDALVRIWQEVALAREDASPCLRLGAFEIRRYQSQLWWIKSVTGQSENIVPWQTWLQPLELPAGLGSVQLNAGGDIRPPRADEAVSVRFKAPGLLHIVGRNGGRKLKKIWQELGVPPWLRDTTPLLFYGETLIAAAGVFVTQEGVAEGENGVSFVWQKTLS

MsTilS = target: T7, MsTilS (Mycolicibacterium smegmatis, UniProt A0R594); test: as above; conditions: labelled compound; cognate tRNA(Ile2) transcript, 2 mM ATP, 10 mM MgCl2, 10 mM KCl, pH 8.5
T7 construct: gene tilS; type II TilS, lacks CTD2 naturally; recombinant, Rosetta II E. coli; strain source only in supplement (codon-usage genome MG(2)155)
T7 sequence (A0R594 1-322): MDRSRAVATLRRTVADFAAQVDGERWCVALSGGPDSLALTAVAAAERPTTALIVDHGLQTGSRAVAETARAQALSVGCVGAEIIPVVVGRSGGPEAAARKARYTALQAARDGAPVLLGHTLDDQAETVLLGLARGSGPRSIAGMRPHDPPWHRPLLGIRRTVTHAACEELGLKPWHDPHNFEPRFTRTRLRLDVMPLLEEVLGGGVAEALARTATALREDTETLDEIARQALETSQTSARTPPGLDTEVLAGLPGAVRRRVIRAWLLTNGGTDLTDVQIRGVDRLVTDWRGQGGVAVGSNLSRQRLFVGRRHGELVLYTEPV

GkMetRS = target: T8, GkMetRS (Geobacillus kaustophilus, UniProt Q5L3W2); test: tRNA methionylation (aminoacylation); conditions: cognate tRNA(Met) transcript; assay details not given
T8 construct: gene metG; recombinant, cloned metS gene; details not in main text

BcMetRS = target: T9, BcMetRS (Burkholderia cenocepacia, UniProt A0K9L0); test: tRNA methionylation (aminoacylation); conditions: cognate tRNA(Met) transcript; assay details not given
T9 construct: gene metG; recombinant, cloned metS gene; details not in main text
T9 sequence (A0K9L0 1-718): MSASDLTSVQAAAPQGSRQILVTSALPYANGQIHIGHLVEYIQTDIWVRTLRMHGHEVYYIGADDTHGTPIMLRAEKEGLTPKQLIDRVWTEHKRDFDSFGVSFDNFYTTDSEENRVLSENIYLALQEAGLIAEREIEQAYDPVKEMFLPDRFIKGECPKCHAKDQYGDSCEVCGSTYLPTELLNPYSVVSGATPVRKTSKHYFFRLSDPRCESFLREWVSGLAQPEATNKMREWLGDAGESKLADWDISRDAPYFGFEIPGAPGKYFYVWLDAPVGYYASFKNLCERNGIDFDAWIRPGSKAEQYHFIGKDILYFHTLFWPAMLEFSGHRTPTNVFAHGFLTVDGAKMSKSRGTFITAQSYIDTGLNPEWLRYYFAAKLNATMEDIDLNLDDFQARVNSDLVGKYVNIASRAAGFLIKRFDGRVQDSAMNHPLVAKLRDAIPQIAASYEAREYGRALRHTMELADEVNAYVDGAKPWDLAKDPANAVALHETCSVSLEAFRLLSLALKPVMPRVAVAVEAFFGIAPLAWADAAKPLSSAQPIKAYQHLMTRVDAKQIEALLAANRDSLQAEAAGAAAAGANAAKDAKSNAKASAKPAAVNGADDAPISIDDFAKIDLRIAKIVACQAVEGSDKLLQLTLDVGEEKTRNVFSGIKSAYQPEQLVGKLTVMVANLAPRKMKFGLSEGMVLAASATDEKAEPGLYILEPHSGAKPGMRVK

PaMetRS = target: T10, PaMetRS (Pseudomonas aeruginosa, UniProt Q9HYC7); test: tRNA methionylation (aminoacylation); conditions: cognate tRNA(Met) transcript; assay details not given
T10 construct: gene metG; recombinant, cloned metS gene; details not in main text
T10 sequence (Q9HYC7 1-677): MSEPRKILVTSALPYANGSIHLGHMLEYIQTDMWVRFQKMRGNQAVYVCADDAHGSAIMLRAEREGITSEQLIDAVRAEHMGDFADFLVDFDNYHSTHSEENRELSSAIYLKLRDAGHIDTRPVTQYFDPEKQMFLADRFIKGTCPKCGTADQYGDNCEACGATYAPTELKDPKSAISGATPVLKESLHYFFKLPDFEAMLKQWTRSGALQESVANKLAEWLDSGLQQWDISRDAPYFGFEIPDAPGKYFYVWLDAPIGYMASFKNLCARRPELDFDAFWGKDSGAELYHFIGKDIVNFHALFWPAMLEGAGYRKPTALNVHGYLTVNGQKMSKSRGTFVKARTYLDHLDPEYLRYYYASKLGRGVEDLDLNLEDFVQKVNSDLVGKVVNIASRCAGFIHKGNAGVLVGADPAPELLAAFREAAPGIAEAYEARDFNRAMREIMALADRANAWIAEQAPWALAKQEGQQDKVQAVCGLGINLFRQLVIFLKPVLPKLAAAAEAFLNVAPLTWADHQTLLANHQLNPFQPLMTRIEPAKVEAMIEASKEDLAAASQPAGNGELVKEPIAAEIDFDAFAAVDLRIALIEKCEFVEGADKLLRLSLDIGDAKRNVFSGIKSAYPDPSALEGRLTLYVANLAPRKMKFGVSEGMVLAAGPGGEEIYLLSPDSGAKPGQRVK

T8 sequence (Q5L3W2 1-650): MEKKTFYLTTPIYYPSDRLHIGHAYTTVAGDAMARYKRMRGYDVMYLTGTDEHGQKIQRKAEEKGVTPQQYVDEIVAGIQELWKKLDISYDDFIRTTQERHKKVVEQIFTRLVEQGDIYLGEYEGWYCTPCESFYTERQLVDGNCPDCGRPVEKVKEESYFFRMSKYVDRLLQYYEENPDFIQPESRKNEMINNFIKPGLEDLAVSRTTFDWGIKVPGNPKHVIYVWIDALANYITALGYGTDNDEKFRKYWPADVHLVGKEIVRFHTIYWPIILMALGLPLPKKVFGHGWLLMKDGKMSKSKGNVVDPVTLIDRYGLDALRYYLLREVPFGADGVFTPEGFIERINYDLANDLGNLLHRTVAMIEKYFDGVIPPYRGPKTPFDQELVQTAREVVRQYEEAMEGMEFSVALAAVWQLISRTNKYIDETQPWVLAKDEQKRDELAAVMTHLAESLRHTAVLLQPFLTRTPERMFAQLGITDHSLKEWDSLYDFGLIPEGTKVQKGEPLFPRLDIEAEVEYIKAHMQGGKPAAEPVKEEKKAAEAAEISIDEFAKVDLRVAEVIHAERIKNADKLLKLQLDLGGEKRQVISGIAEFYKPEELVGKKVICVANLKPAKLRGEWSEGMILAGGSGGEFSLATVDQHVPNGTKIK

| SMILES | 3H-lysine incorporation into tRNA, filter scintillation (GkTilS) | 3H-lysine incorporation into tRNA, filter scintillation (BcTilS) | 3H-lysine incorporation into tRNA, filter scintillation (HpTilS) | 3H-lysine incorporation into tRNA, filter scintillation (BfTilS) | 3H-lysine incorporation into tRNA, filter scintillation (PaTilS) | 3H-lysine incorporation into tRNA, filter scintillation (EcTilS) | 3H-lysine incorporation into tRNA, filter scintillation (MsTilS) | tRNA methionylation (aminoacylation) (GkMetRS) | tRNA methionylation (aminoacylation) (BcMetRS) | tRNA methionylation (aminoacylation) (PaMetRS) |
| --- | --- | --- | --- | --- | --- | --- | --- | --- | --- | --- |
| NCCCC[C@H](N)C(=O)O [L-lysine] | Filters were counted by liquid scintillation to quantify lysine incorporation into transcript tRNA. | Filters were counted by liquid scintillation to quantify lysine incorporation into transcript tRNA. | Filters were counted by liquid scintillation to quantify lysine incorporation into transcript tRNA. | Filters were counted by liquid scintillation to quantify lysine incorporation into transcript tRNA. | Filters were counted by liquid scintillation to quantify lysine incorporation into transcript tRNA. | Filters were counted by liquid scintillation to quantify lysine incorporation into transcript tRNA. | Filters were counted by liquid scintillation to quantify lysine incorporation into transcript tRNA. | – | – | – |
| CSCC[C@H](N)C(=O)O [methionine] | – | – | – | – | – | – | – | evaluated the methionylation activity toward cognate tRNA^Met and near-cognate tRNA^Ile2 substrates | evaluated the methionylation activity toward cognate tRNA^Met and near-cognate tRNA^Ile2 substrates | evaluated the methionylation activity toward cognate tRNA^Met and near-cognate tRNA^Ile2 substrates |

Reference: publication PMC12514573, “The bacterial tRNA-modifying enzyme tRNA^Ile lysidine synthetase is genetically conserved but catalytically variable” (The Journal of Biological Chemistry, 2025)
